# According to PMC10272112 (Nature Communications, 2023):
# “And” between values parts separate entries of the source, which are not always exact repeats. Equal values may be shown once.
# Columns and labels:
# HeLa S3 cells = experiment: Global acetyl-lysine detection by Western blot; conditions: for relative lysine acetylation vs DMSO: HeLa S3, 1 mM, 16 h, replicates A/B
# HDAC10 = target: T1, HDAC10 (Homo sapiens, UniProt Q969S8); experiment: NanoBRET intracellular target engagement assay; format: cell-based; conditions: HeLa cells
# T1 construct: host or cells: HeLa mono-clones, stably expressing
# T1 sequence (Q969S8 1-669): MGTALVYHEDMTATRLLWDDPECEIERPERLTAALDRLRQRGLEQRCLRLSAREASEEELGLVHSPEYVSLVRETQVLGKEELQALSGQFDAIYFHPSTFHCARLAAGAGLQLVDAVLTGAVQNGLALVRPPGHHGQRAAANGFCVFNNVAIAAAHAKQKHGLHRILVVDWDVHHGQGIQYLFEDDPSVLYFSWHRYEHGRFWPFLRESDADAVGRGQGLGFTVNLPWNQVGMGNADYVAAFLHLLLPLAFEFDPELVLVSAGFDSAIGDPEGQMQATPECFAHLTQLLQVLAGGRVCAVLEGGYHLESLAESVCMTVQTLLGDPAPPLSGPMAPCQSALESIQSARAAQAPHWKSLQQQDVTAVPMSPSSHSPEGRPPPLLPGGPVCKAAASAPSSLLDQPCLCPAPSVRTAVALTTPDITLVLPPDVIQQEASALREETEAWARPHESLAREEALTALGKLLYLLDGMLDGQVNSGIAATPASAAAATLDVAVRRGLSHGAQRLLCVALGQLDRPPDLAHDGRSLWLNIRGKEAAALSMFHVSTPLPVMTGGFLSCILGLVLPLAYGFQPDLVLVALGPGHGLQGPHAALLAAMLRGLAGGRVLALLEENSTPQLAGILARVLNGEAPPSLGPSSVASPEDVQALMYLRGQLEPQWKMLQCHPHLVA
# Procedure: For the production of transfected HeLa mono-clones stably expressing HDAC-nanoBRET fusion proteins of HDAC10 and HDAC6-catalytic domain 2 (HDAC6CD2), plasmids expressing a fusion of HDAC10 with nanoluciferase were obtained from Promega (N2170). HeLa cells (0.75 × 10^6) were seeded in a 6 cm dish and were transfected with a mix of 10 μg plasmid and 3 μL Fugene in 200 μL OptiMEM after 24 h. The intracellular target engagement assay on HDAC10 and HDAC6CD2 was performed using the NanoBRET™ Target Engagement Intracellular HDAC Assay (Promega N2081 and N2090) as described by the kit manufacturer in a 96-well plate (Corning 3600) format with 2 × 10^4 cells per well and a tracer concentration of 0.3 μM. Inhibitors were dosed with a D300e Digital Dispenser (Tecan). DMSO concentrations were normalized to 0.5% for all wells. After dosing, assay plates were shaken at 800 rpm and incubated at 37 °C for 2 h followed by measurement of 450 nm and 650 nm luminescence (80 nm bandwidth) at room temperature with a CLARIOstar (BMG Labtech) plate reader 2 min after NanoLuc substrate addition.
# A549 cells = experiment: Arsenite-induced stress granule formation (G3BP1 immunofluorescence); format: cell-based; conditions: for arsenite-induced stress granule quantification (G3BP1), Mean / arsenite-induced stress granule quantification (G3BP1), Median / arsenite-induced stress granule quantification (G3BP1), individual values: sheet 4b; for arsenite-induced stress granule quantification (G3BP1), individual values: single data points
# Procedure: The acetylation status of proteins can affect their macromolecular associations and the tendency of proteins to phase-separate into liquid condensates such as stress granules. […] After pre-incubation of cells with the compound, stress granule formation was induced using 30 min of arsenite treatment (1 mM). After treatment, cells were fixed for immunofluorescence detection of stress granules via the common stress granule marker protein G3BP1[21].
# 0.03 × 10^6 A549 cells were seeded at 4-chamber slides (Thermo, Nunc) and cultured at 37 °C overnight. Cells were treated with HDAC inhibitor SAHA and Lipoic acid or LM for 6 h, followed by 1 mM Arsenite for 30 min. Cells were fixed by 4% PFA and permeabilized by 0.5% Triton X-100/PBS. 10% Goat serum in PBS was used for blocking. After manually selecting an area with cell confluency of 50–80%, 16 pictures were taken randomly around the central point (ZEISS software in-built function). Stress granule marker G3BP1 (Aviva Systems Biology, ARP37713_T100) was visualized and quantified by ImageJ. Statistical analysis was performed with GraphPad Prism.
# [1] = HeLa S3, time-dependent treatment, 5 mM
intracellular binding to HDAC10 (HDAC10),SMILES,relative lysine acetylation vs DMSO (HeLa S3 cells; 10-12 kDa bands),relative lysine acetylation vs DMSO (HeLa S3 cells; 14-16 kDa bands),relative lysine acetylation vs DMSO (HeLa S3 cells; 21-23 kDa bands),relative lysine acetylation vs DMSO (HeLa S3 cells; 24-26 kDa bands),relative lysine acetylation vs DMSO (HeLa S3 cells; 49-51 kDa bands),relative lysine acetylation vs DMSO (HeLa S3 cells; 65-73 kDa bands),time of peak acetylation (HeLa S3 cells; [1]),time to upregulation of acetylation on a broad range of proteins (HeLa S3 cells; [1]),"arsenite-induced stress granule quantification (G3BP1), Mean (A549 cells; LM 100 uM)","arsenite-induced stress granule quantification (G3BP1), Median (A549 cells; LM 100 uM)","arsenite-induced stress granule quantification (G3BP1), individual values (A549 cells; LM 100 uM)","arsenite-induced stress granule quantification (G3BP1), Mean (A549 cells; LM 300 uM)","arsenite-induced stress granule quantification (G3BP1), Median (A549 cells; LM 300 uM)","arsenite-induced stress granule quantification (G3BP1), individual values (A549 cells; LM 300 uM)","arsenite-induced stress granule quantification (G3BP1), Mean (A549 cells; LM 1000 uM)","arsenite-induced stress granule quantification (G3BP1), Median (A549 cells; LM 1000 uM)","arsenite-induced stress granule quantification (G3BP1), individual values (A549 cells; LM 1000 uM)","effect on stress granule numbers per cell (A549 cells; pre-incubation 6 h, then 1 mM arsenite 30 min)"
,"O=C(O)CCCCC1CCSS1 (racemic) [(R/S)-LA, (R/S)-lipoic acid]",5.9571 and 6.0208,4.6853 and 4.9960,2.3477 and 2.3498,2.1045 and 2.1971,6.4530 and 6.1942,5.8639 and 5.7630,3 to 8 h,≤ 1 h,,,,,,,,,,
dose-dependent intracellular binding,"NC(=O)CCCCC1CCSS1 (racemic) [(R/S)-LM, (R/S)-lipoamide]",,,,,,,,,50.8573,45.1,71 and 31.1875 and 45 and 63.6 and 40.5 and 81.5 and 35.3333 and 36 and 53.7143 and 35.8571 and 38.125 and 41.75 and 45.1 and 52.8 and 44.3 and 63.75 and 64.7778 and 49.1818 and 58.6 and 39.7273 and 76.2,32.0457,30.3222,24.4375 and 30.6667 and 27.6923 and 44.9286 and 34.8 and 39.0909 and 43.75 and 27.5454 and 17.65 and 28.1111 and 42.3 and 13.75 and 29.6842 and 28.3684 and 12.875 and 35.8333 and 25.5 and 35.3077 and 30.4444 and 43.6667 and 30.2 and 36.2308 and 27.3889 and 58.875,21.5611,21.7363,28.8889 and 25.875 and 20.6667 and 21.6154 and 30.8182 and 26.2857 and 7.556 and 13.9375 and 25.5714 and 28 and 21.25 and 20 and 16.75 and 17 and 9.615 and 15.3 and 22.6191 and 29.6154 and 21.8571,dose-dependent reduction of stress granule numbers per cell
